The text below walks through data of patent publication US10717716B2, “1,3,4-oxadiazole derivative compounds as histone deacetylase 6 inhibitor, and the pharmaceutical composition comprising the same” (Chong Kun Dang Pharmaceutical Corp., priority 2015, dated 2020).

The experiment addresses T1, human recombinant HDAC6 (Homo sapiens, UniProt Q9UBN7).
T1 construct: purchased Calbiochem 382180
T1 sequence (Q9UBN7 1-1215): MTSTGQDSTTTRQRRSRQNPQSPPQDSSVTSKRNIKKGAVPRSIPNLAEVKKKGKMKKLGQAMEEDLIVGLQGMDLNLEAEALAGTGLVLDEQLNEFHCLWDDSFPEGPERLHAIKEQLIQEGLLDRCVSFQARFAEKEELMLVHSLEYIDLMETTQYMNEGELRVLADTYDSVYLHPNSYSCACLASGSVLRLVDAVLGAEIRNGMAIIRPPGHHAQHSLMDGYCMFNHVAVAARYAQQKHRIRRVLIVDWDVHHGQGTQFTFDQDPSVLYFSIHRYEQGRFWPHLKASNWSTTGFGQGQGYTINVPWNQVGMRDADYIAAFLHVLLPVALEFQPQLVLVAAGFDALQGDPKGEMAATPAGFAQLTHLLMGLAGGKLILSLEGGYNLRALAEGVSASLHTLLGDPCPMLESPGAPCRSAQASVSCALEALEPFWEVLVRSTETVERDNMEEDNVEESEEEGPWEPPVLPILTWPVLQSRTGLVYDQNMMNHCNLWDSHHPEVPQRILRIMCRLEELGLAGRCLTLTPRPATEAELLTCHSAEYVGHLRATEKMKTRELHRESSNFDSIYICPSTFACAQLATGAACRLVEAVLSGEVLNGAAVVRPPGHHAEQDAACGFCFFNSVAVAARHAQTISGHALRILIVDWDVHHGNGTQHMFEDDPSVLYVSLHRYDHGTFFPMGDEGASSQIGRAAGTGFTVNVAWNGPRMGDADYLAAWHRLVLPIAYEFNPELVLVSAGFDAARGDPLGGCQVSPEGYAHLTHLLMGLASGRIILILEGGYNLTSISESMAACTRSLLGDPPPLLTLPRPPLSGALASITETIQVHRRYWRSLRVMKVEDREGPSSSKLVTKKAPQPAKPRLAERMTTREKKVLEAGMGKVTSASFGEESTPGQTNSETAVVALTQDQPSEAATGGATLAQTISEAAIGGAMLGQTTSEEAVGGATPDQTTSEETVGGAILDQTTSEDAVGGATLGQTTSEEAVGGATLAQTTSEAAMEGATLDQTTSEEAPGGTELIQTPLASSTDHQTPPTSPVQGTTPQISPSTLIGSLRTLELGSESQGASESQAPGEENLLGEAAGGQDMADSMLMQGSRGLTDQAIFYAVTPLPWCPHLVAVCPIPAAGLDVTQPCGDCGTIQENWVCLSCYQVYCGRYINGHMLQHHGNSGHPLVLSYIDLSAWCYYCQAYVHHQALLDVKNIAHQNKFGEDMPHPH
Description: HDAC6 enzyme activity inhibition assay (HDAC Fluorimetric Drug Discovery Kit). Format: biochemical. The note with it: for HDAC6 selectivity (fold): HDAC6 over HDAC1; for IC50: human recombinant HDAC6, same protocol as HDAC1, read-out: HDAC6. In a few lines:
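Fluorimetric deacetylase assay: 5-fold serial compound dilutions, 0.3 μg recombinant human enzyme (HDAC1 or HDAC6, same protocol), 10 μM Fluor de Lys-SIRT1 substrate, 60 min at 30 °C. Signal developed 30 min, measured at 360/460 nm; IC50 values derived.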

Take `O=C(N1CCS(=O)(=O)CC1)N(Cc1ccc(-c2nnc(C(F)(F)F)o2)cc1F)c1cccc(OC(F)(F)F)c1` [Compound 21528, N-(2-fluoro-4-(5-(trifluoromethyl)-1,3,4-oxadiazol-2-yl)benzyl)-N-(3-(trifluoromethoxy)phenyl)thiomorpholine-4-carboxamide 1,1-dioxide]: the “HDAC6 selectivity (fold)” value came to 47 fold and the IC50 was determined as 214 nM.

Regarding `O=C(N1CCS(=O)(=O)CC1)N(Cc1ccc(-c2nnc(C(F)F)o2)cc1F)c1cccc(OC(F)(F)F)c1` [Compound 21529, N-(4-(5-(difluoromethyl)-1,3,4-oxadiazol-2-yl)-2-fluorobenzyl)-N-(3-(trifluoromethoxy)phenyl)thiomorpholine-4-carboxamide 1,1-dioxide], the “HDAC6 selectivity (fold)” value was 278 fold and the IC50 turned out to be 36 nM.

In the case of `O=C(N1CCS(=O)(=O)CC1)N(Cc1ccc(-c2nnc(C(F)(F)F)o2)cc1F)c1ccc(F)c(Cl)c1` [Compound 21530, N-(3-chloro-4-fluorophenyl)-N-(2-fluoro-4-(5-(trifluoromethyl)-1,3,4-oxadiazol-2-yl)benzyl)thiomorpholine-4-carboxamide 1,1-dioxide], the “HDAC6 selectivity (fold)” value amounted to 167 fold and the IC50 was 60 nM.

With `O=C(N1CCS(=O)(=O)CC1)N(Cc1ccc(-c2nnc(C(F)F)o2)cc1F)c1ccc(F)c(Cl)c1` [Compound 21531, N-(3-chloro-4-fluorophenyl)-N-(4-(5-(difluoromethyl)-1,3,4-oxadiazol-2-yl)-2-fluorobenzyl)thiomorpholine-4-carboxamide 1,1-dioxide], the “HDAC6 selectivity (fold)” value was 769 fold and the IC50 was determined as 13 nM.

Regarding `O=C(N1CCOCC1)N(Cc1ncc(-c2nnc(C(F)F)o2)cn1)c1ccccc1` [Compound 21532, N-((5-(5-(difluoromethyl)-1,3,4-oxadiazol-2-yl)pyrimidin-2-yl)methyl)-N-phenylmorpholine-4-carboxamide], the “HDAC6 selectivity (fold)” value was determined as 208 fold and the IC50 is 48 nM.

Consider `CN1CCN(C(=O)N(Cc2ccc(-c3nnc(C(F)F)o3)cc2F)c2cccc(-c3ccccc3)c2)CC1` [Compound 21533, N-([1,1′-biphenyl]-3-yl)-N-(4-(5-(difluoromethyl)-1,3,4-oxadiazol-2-yl)-2-fluorobenzyl)-4-methylpiperazine-1-carboxamide], for which the “HDAC6 selectivity (fold)” value was 70 fold and the IC50 was determined as 143 nM.

Take `CN1CCN(C(=O)N(Cc2ccc(-c3nnc(C(F)F)o3)cc2F)c2cccc(-c3ccoc3)c2)CC1` [Compound 21534, N-(4-(5-(difluoromethyl)-1,3,4-oxadiazol-2-yl)-2-fluorobenzyl)-N-(3-(furan-3-yl)phenyl)-4-methylpiperazine-1-carboxamide]: the “HDAC6 selectivity (fold)” value is 175 fold and the IC50 was determined as 57 nM.

For `CN1CCN(C(=O)N(Cc2ccc(-c3nnc(C(F)F)o3)cc2F)c2cccc(-c3ccncc3)c2)CC1` [Compound 21535, N-(4-(5-(difluoromethyl)-1,3,4-oxadiazol-2-yl)-2-fluorobenzyl)-4-methyl-N-(3-(pyridin-4-yl)phenyl)piperazine-1-carboxamide], the “HDAC6 selectivity (fold)” value is on record as 227 fold and the IC50 worked out at 44 nM.

As to `CN1CCN(C(=O)N(Cc2ccc(-c3nnc(C(F)F)o3)cc2F)c2cccc(-c3cccnc3)c2)CC1` [Compound 21536, N-(4-(5-(difluoromethyl)-1,3,4-oxadiazol-2-yl)-2-fluorobenzyl)-4-methyl-N-(3-(pyridin-3-yl)phenyl)piperazine-1-carboxamide], the “HDAC6 selectivity (fold)” value was determined as 556 fold and the IC50 worked out at 18 nM.

Consider `CN1CCN(C(=O)N(Cc2ccc(-c3nnc(C(F)F)o3)cc2F)c2cccc(-c3ccc4c(cnn4C)c3)c2)CC1` [Compound 21537, N-(4-(5-(difluoromethyl)-1,3,4-oxadiazol-2-yl)-2-fluorobenzyl)-4-methyl-N-(3-(1-methyl-1H-indazol-5-yl)phenyl)piperazine-1-carboxamide], for which the “HDAC6 selectivity (fold)” value turned out to be 145 fold and the IC50 came to 69 nM.

Turning to `CN1CCN(C(=O)N(Cc2ccc(-c3nnc(C(F)F)o3)cc2F)c2ccc(-c3cccnc3)cc2)CC1` [Compound 21540, N-(4-(5-(difluoromethyl)-1,3,4-oxadiazol-2-yl)-2-fluorobenzyl)-4-methyl-N-(4-(pyridin-3-yl)phenyl)piperazine-1-carboxamide], the “HDAC6 selectivity (fold)” value turned out to be 333 fold and the IC50 is 30 nM.

Turning to `CN1CCN(C(=O)N(Cc2ccc(-c3nnc(C(F)F)o3)cc2F)c2ccc(-c3ccncc3)cc2)CC1` [Compound 21541, N-(4-(5-(difluoromethyl)-1,3,4-oxadiazol-2-yl)-2-fluorobenzyl)-4-methyl-N-(4-(pyridin-4-yl)phenyl)piperazine-1-carboxamide], the “HDAC6 selectivity (fold)” value is 156 fold and the IC50 worked out at 64 nM.

As to `CN1CCN(C(=O)N(Cc2ccc(-c3nnc(C(F)F)o3)cc2F)c2ccc(-c3ccccc3)cc2)CC1` [Compound 21542, N-([1,1′-biphenyl]-4-yl)-N-(4-(5-(difluoromethyl)-1,3,4-oxadiazol-2-yl)-2-fluorobenzyl)-4-methylpiperazine-1-carboxamide], the “HDAC6 selectivity (fold)” value is 164 fold and the IC50 was 61 nM.

Consider `O=C(N1CCS(=O)(=O)CC1)N(Cc1ccc(-c2nnc(C(F)F)o2)cc1F)c1ccc2c(c1)CCO2` [Compound 21544, N-(4-(5-(difluoromethyl)-1,3,4-oxadiazol-2-yl)-2-fluorobenzyl)-N-(2,3-dihydrobenzofuran-5-yl)thiomorpholine-4-carboxamide 1,1-dioxide], for which the “HDAC6 selectivity (fold)” value is 294 fold and the IC50 is 34 nM.

Consider `Cn1ncc2ccc(N(Cc3ccc(-c4nnc(C(F)F)o4)cc3F)C(=O)N3CCS(=O)(=O)CC3)cc21` [Compound 21546, N-(4-(5-(difluoromethyl)-1,3,4-oxadiazol-2-yl)-2-fluorobenzyl)-N-(1-methyl-1H-indazol-6-yl)thiomorpholine-4-carboxamide 1,1-dioxide], for which the “HDAC6 selectivity (fold)” value is 476 fold and the IC50 is 21 nM.

For the compound `CCN(CC)c1ccc(N(Cc2ccc(-c3nnc(C(F)(F)F)o3)cc2F)C(=O)N2CCS(=O)(=O)CC2)cc1` [Compound 21552, N-(4-(diethylamino)phenyl)-N-(2-fluoro-4-(5-(trifluoromethyl)-1,3,4-oxadiazol-2-yl)benzyl)thiomorpholine-4-carboxamide 1,1-dioxide], the “HDAC6 selectivity (fold)” value was found to be 7 fold and the IC50 worked out at 1520 nM.

As for `CCN(CC)c1ccc(N(Cc2ccc(-c3nnc(C(F)F)o3)cc2F)C(=O)N2CCS(=O)(=O)CC2)cc1` [Compound 21553], the “HDAC6 selectivity (fold)” value came out at 14 fold and the IC50 is 697 nM.

Turning to `CN1CCN(C(=O)N(CCc2ccccc2)Cc2ccc(-c3nnc(C(F)F)o3)cc2F)CC1` [Compound 21554, N-(4-(5-(difluoromethyl)-1,3,4-oxadiazol-2-yl)-2-fluorobenzyl)-4-methyl-N-phenethylpiperazine-1-carboxamide], the “HDAC6 selectivity (fold)” value is listed as 65 fold and the IC50 was determined as 155 nM.

Turning to `O=C(N1CCOCC1)N(CCc1ccccc1)Cc1ccc(-c2nnc(C(F)F)o2)cc1F` [Compound 21555, N-(4-(5-(difluoromethyl)-1,3,4-oxadiazol-2-yl)-2-fluorobenzyl)-N-phenethylmorpholine-4-carboxamide], the “HDAC6 selectivity (fold)” value came out at 26 fold and the IC50 was 386 nM.

For the compound `COc1ccccc1CCN(Cc1ccc(-c2nnc(C(F)F)o2)cc1F)C(=O)N1CCN(C)CC1` [Compound 21556, N-(4-(5-(difluoromethyl)-1,3,4-oxadiazol-2-yl)-2-fluorobenzyl)-N-(2-methoxyphenethyl)-4-methylpiperazine-1-carboxamide], the “HDAC6 selectivity (fold)” value was found to be 36 fold and the IC50 came out at 281 nM.

Regarding `COc1ccccc1CCN(Cc1ccc(-c2nnc(C(F)F)o2)cc1F)C(=O)N1CCOCC1` [Compound 21557, N-(4-(5-(difluoromethyl)-1,3,4-oxadiazol-2-yl)-2-fluorobenzyl)-N-(2-methoxyphenethyl) morpholine-4-carboxamide], the “HDAC6 selectivity (fold)” value was found to be 41 fold and the IC50 was 244 nM.
